Test results taken from US9980928B2, “Hydroxy aliphatic substituted phenyl aminoalkyl ether derivatives” (PROUS INSTITUTE FOR BIOMEDICAL RESEARCH, S.A., priority 2012, dated 2018).
Values joined by “and” are separate entries in the source; they are usually repeats but may differ in a detail not shown here. Equal entries are not always repeated.

How the values were obtained:
mice = experiment: Passive avoidance test; format: in vivo; conditions: 30 mg/kg i.p., test phase 24 hours later
From the text: The passive avoidance task is a fear-aggravated test used to evaluate learning and memory in rodent models of CNS disorders. In this test, subjects learn to avoid an environment in which an aversive stimulus (such as a footshock) was previously delivered.
The animals can freely explore the light and dark compartments of the chamber and a mild footshock is delivered in one side of the compartment. Animals eventually learn to associate certain properties of the chamber with the footshock. The latency to pass the gate in order to avoid the stimulus is used as an indicator of learning and memory. The passive avoidance task is useful for evaluating the effect of novel chemical entities on learning and memory, as well as studying the mechanisms involved in cognition (Cappon, G. D. Eur J Pharmacol. 2008 579(1-3): 225-8).
A passive avoidance test with Example 2 administered i.p. at 30 mg/kg was conducted to assess the formation of recent and long-term memory (consolidation) using a negative reinforcement (0.6 mA footshock; 2 s).

uptake of serotonin = uptake of serotonin (Homo sapiens, UniProt P31645); experiment: Uptake inhibition of serotonin, cellular assay; format: cell-based; conditions: read-out: Serotonin reuptake inhibition (IC50 μM)
Description: The effect of the compounds of the present invention as inhibitors of the uptake of norepinephrine and serotonin in cellular assays at concentrations that range from […] to 1 nM is determined following the methods described in Galli, A. et al. J Exp Biol 1995, 198(Pt. 10): 2197-212 and Gu, H. et al. J Biol Chem. 1994, 269(10):7124-30.

Chain of uptake of serotonin (P31645 whole entry): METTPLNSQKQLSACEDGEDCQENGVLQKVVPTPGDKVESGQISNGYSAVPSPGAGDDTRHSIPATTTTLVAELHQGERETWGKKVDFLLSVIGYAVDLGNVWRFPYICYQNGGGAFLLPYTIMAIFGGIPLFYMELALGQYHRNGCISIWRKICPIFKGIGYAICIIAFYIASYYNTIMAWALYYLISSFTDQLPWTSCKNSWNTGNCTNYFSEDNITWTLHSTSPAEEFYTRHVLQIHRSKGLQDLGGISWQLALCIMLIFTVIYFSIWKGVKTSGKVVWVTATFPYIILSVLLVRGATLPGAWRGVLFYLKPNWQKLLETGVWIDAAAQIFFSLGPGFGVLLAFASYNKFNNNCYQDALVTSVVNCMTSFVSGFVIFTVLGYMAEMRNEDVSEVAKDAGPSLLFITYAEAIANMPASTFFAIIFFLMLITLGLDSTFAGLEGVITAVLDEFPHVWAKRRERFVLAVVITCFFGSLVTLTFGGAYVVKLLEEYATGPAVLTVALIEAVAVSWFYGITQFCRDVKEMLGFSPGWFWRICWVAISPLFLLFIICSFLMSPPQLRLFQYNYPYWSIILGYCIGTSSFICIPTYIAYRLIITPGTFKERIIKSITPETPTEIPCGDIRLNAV

Compound: CNCCC(Oc1ccc(CCO)cc1)c1ccccc1.Cl (single isomer, unassigned) [Example 2, 2-[4-[3-(Methylamino)-1-phenylpropoxy]phenyl]ethanol hydrochloride]
- time on the platform vs saline-treated group (recent memory formation) (mice): significantly longer time on the platform
- IC50 (uptake of serotonin): 0.328 µM and 0.348 µM
